Laboratory results reported in PMC9319939, “Siccanin Is a Dual-Target Inhibitor of Plasmodium falciparum Mitochondrial Complex II and Complex III” (Pharmaceuticals, 2022).
Where two headings read alike, the source gives them in different places.

Columns and labels:
[1] = tested on: P. falciparum 3D7; assay: Drug sensitivity assay, 72 h, PfLDH-based; assay type: cell-based; settings: Plasmodium falciparum
Experimental: The P. falciparum 3D7 strain was cultured, as described previously, in 3% hematocrit type A human red blood cells (RBCs) in RPMI1640 medium (Invitrogen; San Diego, CA, USA) supplemented with 25 mM sodium hydrogen biocarbonate, 10 μg/mL hypoxanthine, 40 μg/mL gentamicin sulfate, and 0.5% (w/v) Albumax II (Invitrogen) (“complete medium”). Cultures were maintained in a MG-70M multi-gas incubator (Taitec) under the conditions of 5% O2, 5% CO2, and 90% N2 at 37 °C. The medium was replaced daily. Parasitemia was measured by thin blood smears stained with Giemsa. In our previous study, we generated mutant P. falciparum strains expressing either disrupted or full-length versions of the flavoprotein (Fp) subunit (encoded by the Pfsdha gene). Both strains were cultured in complete medium at 3% hematocrit supplemented with 5 nM WR99210 (Jacobus Pharmaceuticals; Plainsboro, NJ, USA). The experiments using human RBCs were performed under the guidelines of Research Ethics Committee of the Faculty of Medicine of the University of Tokyo and Institutional Review Board (IRB) of Nagasaki University (Permission nos. 10050 and no. 19, respectively). Human RBCs were obtained from The Japanese Red Cross Society. The synchronization of parasite cultures was performed by treating with 5% (w/v) sorbitol for 10 min [77].
(§1) Synchronized ring-form parasites (0.3% parasitemia) were prepared in complete medium containing different concentration of various compounds (at a fixed final DMSO concentration of 0.1% (v/v)) and distributed to 96-well plates at 100 μL/well. After 72 h of incubation, parasite growth was monitored by the previously described lactate dehydrogenase (PfLDH)-based assay method; plates were read using a SpectraMax® Paradigm spectrophotometer (Molecular Devices, Inc.; San Jose, CA, USA). EC50 values were calculated using Prism® ver.6.01 (GraphPad; San Diego, CA, USA). Values are presented as the means of three independent experiments.

[2] = tested on: P. falciparum (synchronized ring-form parasites); assay: Assessment of parasite survival, Giemsa-stained smears; assay type: cell-based, Plasmodium falciparum; settings: 50 µM siccanin; 16, 24, 32, 48 h
Experimental: Synchronized ring-form parasites (2% parasitemia) were prepared in complete medium containing 50 µM siccanin (at a fixed final DMSO concentration of 0.1% (v/v)) and distributed to 24-well plates at 1 mL/well. After incubation for 16, 24, 32, and 48 h, parasitemia was assessed under the microscope using thin blood smears stained with Giemsa.

[3] = tested on: Δsdha-3D7 P. falciparum; assay: Drug sensitivity assay, 72 h, PfLDH-based, sdha-disrupted strain; assay type: cell-based; settings: Plasmodium falciparum, 3D7, read-out: Growth IC50, Δsdha-3D7
Experimental: The P. falciparum 3D7 strain was cultured, as described previously, in 3% hematocrit type A human red blood cells (RBCs) in RPMI1640 medium (Invitrogen; San Diego, CA, USA) supplemented with 25 mM sodium hydrogen biocarbonate, 10 μg/mL hypoxanthine, 40 μg/mL gentamicin sulfate, and 0.5% (w/v) Albumax II (Invitrogen) (“complete medium”). Cultures were maintained in a MG-70M multi-gas incubator (Taitec) under the conditions of 5% O2, 5% CO2, and 90% N2 at 37 °C. The medium was replaced daily. Parasitemia was measured by thin blood smears stained with Giemsa. In our previous study, we generated mutant P. falciparum strains expressing either disrupted or full-length versions of the flavoprotein (Fp) subunit (encoded by the Pfsdha gene). […]
as §1, with “Values are presented as the means of three independent experiments.” left out

[4] = tested on: Dd2 and drug-resistant panel strains; assay: Growth inhibition across Dd2 and drug-resistant panel strains; assay type: cell-based; settings: Plasmodium falciparum, DD2, read-out: EC50s for growth inhibition, range over strains
Experimental: (§2) P. falciparum 3D7-yDHODH was prepared and maintained as described previously. P. falciparum Dd2, and Dd2-derived mutant strains were kindly provided by David A. Fidock, and maintained at Nagasaki University essentially as described in reference, except without supplementation with WR99210.
as §1

[5] = target: P. falciparum complex II (Plasmodium falciparum, UniProt Q8I5S5+Q8IJU2); assay: succinate:ubiquinone reductase (SQR) activity, crude mitochondrial fraction, DCIP reduction; assay type: biochemical; settings: siccanin 10 μM; read-out: Relative residual activity of SQR
Experimental: (§3) A synchronized parasite culture was grown for 64 h and a crude mitochondrial fraction was prepared from trophozoite-stage cells (as confirmed by Giemsa staining). Infected red blood cells were collected by centrifugation at 800× g for 5 min at 4 °C and incubated for 5 min at room temperature with 40 mL of 0.075% (w/v) saponin in AIM buffer (120 mM KCl, 20 mM NaCl, 10 mM PIPES (1,4-piperazinediethanesulfonic acid) buffer [pH 6.7], 1 mM MgCl2, 5 mM glucose). Released parasites were collected by centrifugation at 2780× g for 7 min at 4 °C and washed three times with AIM buffer. […]
(§4) Complex II, DHODH, MQO, NDH2, G3PDH, and dihydroorotate-cytochrome c (DHO-cyt c) reductase activities were measured, as described previously, using a V-660 spectrophotometer (JASCO; Tokyo, Japan). Briefly, complex II activity was measured at 25 °C in a 1 mL reaction mixture containing 45 μM 2,6-dichlorophenolidophenol (DCIP), 100 μM ubiquinone-2 (UQ2), and 2 mM KCN in 50 mM potassium phosphate buffer, pH 8.0. DHODH, MQO, and G3PDH activities were measured at 25 °C in 1 mL of the reaction mixture containing 45 μM DCIP, 100 μM UQ2, and 2 mM KCN in 30 mM Tris-HCl buffer, pH 8.0. […] NDH2 activity was measured at 25 °C in 1 mL of the reaction mixture containing 100 µM UQ1 and 2 mM KCN in 50 mM potassium phosphate buffer, pH 8.0. […]

[6] = tested on: Dd2_GNF (Carl-I1139K mutation); assay: Growth inhibition of Dd2_GNF (GNF156-resistant); assay type: cell-based; settings: Plasmodium falciparum, read-out: Growth inhibition EC50, GNF
Experimental: as §2, §1

[7] = tested on: type-II NADH dehydrogenase (NDH2); assay: NDH2 activity, crude mitochondrial fraction, NADH at 340 nm; assay type: biochemical, Plasmodium falciparum
Experimental: as §3, §4

P. falciparum complex II, sequence (Q8IJ66 entry or part of it): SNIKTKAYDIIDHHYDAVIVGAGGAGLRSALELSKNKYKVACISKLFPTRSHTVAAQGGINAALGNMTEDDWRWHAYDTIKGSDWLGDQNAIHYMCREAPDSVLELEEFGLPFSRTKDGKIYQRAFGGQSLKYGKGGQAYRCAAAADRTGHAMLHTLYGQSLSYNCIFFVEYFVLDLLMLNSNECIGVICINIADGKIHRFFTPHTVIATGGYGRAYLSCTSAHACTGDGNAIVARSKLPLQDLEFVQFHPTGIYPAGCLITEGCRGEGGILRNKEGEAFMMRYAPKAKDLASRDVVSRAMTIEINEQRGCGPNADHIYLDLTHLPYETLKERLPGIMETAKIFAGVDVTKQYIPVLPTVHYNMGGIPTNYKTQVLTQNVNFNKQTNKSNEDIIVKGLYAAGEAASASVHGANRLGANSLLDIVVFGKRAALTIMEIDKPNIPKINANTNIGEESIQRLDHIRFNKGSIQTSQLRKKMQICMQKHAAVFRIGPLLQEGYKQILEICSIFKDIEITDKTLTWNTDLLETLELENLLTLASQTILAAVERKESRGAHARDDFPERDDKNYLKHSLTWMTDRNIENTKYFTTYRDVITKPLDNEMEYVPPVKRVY
P. falciparum complex II, sequence (Q8IJU2 entry or part of it): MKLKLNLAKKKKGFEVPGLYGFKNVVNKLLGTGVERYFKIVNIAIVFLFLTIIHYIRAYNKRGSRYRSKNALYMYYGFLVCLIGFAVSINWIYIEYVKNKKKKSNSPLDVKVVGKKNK
P. falciparum complex II, sequence (Q8I5S5 entry or part of it): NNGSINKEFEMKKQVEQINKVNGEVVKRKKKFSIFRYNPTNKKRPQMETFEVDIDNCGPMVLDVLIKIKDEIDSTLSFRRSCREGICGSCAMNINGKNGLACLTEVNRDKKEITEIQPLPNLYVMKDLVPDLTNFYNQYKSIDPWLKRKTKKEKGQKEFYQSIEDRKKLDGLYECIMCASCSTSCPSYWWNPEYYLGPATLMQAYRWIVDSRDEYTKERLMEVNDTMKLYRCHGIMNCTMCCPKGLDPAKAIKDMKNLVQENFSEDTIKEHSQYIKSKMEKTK

Cc1cc(O)c2c(c1)O[C@@]1(C)CC[C@H]3C(C)(C)CCC[C@]34CO[C@@H]2[C@H]41 [Siccanin]
IC50 ([1]; 3D7, read-out: Growth IC50, parent (wild-type) 3D7): 6.1 ± 1 µM
EC50 ([1]; 3D7, Figure 6a, read-out: Growth inhibition EC50, 3D7 (parent)): 11.7 µM
IC50 ([1]; 3D7, 72 h, 5 mM fumarate, read-out: Growth IC50 in presence of fumarate): 11.5 ± 1.09 µM
IC50 ([1]; 3D7, 72 h, 5 mM succinate, read-out: Growth IC50 in presence of succinate): 10.8 ± 2.16 µM
IC50 ([1]; 3D7, 72 h, no succinate or fumarate added, read-out: Growth IC50, P. falciparum): 8.4 µM
Live parasites under the microscope [2]: could not detect live parasites
IC50 [3]: 6.13 ± 0.91 µM
EC50 [4]: 12.4 to 18.7 µM
remaining activity at 10 µM [5]: 2.7 ± 6.5%
EC50 [6]: 13.4 µM
Effect on NDH2 activity ([7]; 10 µM): did not inhibit
Relative residual activity of NDH2 ([7]; siccanin 10 μM): 101.8 ± 8.1%
